In PubChem BioAssay AID256 (DTP/NCI, 2004):
Several values for one entry are separate records, joined by “and”; a condition that tells them apart may be missing. Equal values may be shown once. Inconclusive results and toxic doses are left out. Non-standard residues stand in square brackets, D forms with d. Residues, ends and D or L forms follow the SMILES beside them. ξ: configuration not given here. *: point of attachment. Boc = CC(C)(C)OC(=O)*; ξP = O=C(O)C1CCCN1

Tested on: CD2F1 mice, L1210 leukemia ip, survival T/C
Experiment: NCI In Vivo Anticancer Drug Screen. Data for tumor model L1210 Leukemia (intraperitoneal) in CD2F1 (CDF1) mice
Details: higher = longer survival
Outline: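 Transplantable tumor in mice; compound-treated vs vehicle-treated groups. Read-out = treated/control ratio of the measured endpoint.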

[1] = endpoint: mean survival time, dose: 100.0 mg/kg/injection, schedule: Q04DX003 (ip), vehicle: acetone
[2] = endpoint: mean survival time, dose: 200.0 mg/kg/injection, schedule: Q04DX003 (ip), vehicle: acetone
[3] = endpoint: mean survival time, dose: 400.0 mg/kg/injection, schedule: Q04DX003 (ip), vehicle: acetone
[4] = endpoint: mean survival time, dose: 100.0 mg/kg/injection, schedule: Q01DX009 (ip), vehicle: saline with Tween-80
[5] = endpoint: mean survival time, dose: 100.0 mg/kg/injection, schedule: Q04DX002 (ip), vehicle: saline with Tween-80
[6] = endpoint: mean survival time, dose: 200.0 mg/kg/injection, schedule: Q01DX009 (ip), vehicle: saline with Tween-80
[7] = endpoint: mean survival time, dose: 400.0 mg/kg/injection, schedule: Q01DX009 (ip), vehicle: saline with Tween-80
[8] = endpoint: mean survival time, dose: 12.5 mg/kg/injection, schedule: Q01DX009 (ip), vehicle: saline
[9] = endpoint: mean survival time, dose: 25.0 mg/kg/injection, schedule: Q01DX009 (ip), vehicle: saline
[10] = endpoint: mean survival time, dose: 50.0 mg/kg/injection, schedule: Q01DX009 (ip), vehicle: saline
[11] = endpoint: mean survival time, dose: 100.0 mg/kg/injection, schedule: Q01DX009 (ip), vehicle: saline
[12] = endpoint: mean survival time, dose: 200.0 mg/kg/injection, schedule: Q01DX009 (ip), vehicle: saline
[13] = endpoint: mean survival time, dose: 400.0 mg/kg/injection, schedule: Q01DX009 (ip), vehicle: saline

C=CCNC(=O)C(O)C(O)C(=O)NCC=C (centres undefined)
T/C (endpoint: mean survival time, dose: 100.0 mg/kg/injection, schedule: Q01DX009 (ip), vehicle: acetone): 101 % of control
T/C [1]: 98 % of control
T/C (endpoint: mean survival time, dose: 200.0 mg/kg/injection, schedule: Q01DX009 (ip), vehicle: acetone): 96 % of control
T/C [2]: 100 % of control
T/C (endpoint: mean survival time, dose: 400.0 mg/kg/injection, schedule: Q01DX009 (ip), vehicle: acetone): 98 % of control
T/C [3]: 112 % of control

CCOC(=O)c1cnc2c(cnn2CC)c1N1CCN(CCO)CC1
T/C (endpoint: mean survival time, dose: 100.0 mg/kg/injection, schedule: Q04DX003 (ip), vehicle: Klucel (hydroxypropylcellulose) (HPC)): 101 % of control

COc1ccc(C2NCCc3cc(OC)c(OC)cc32)cc1OC (centres undefined)
T/C (endpoint: mean survival time, dose: 12.5 mg/kg/injection, schedule: Q01DX009 (ip), vehicle: water): 98 % of control
T/C (endpoint: mean survival time, dose: 25.0 mg/kg/injection, schedule: Q01DX009 (ip), vehicle: water): 98 % of control
T/C (endpoint: mean survival time, dose: 50.0 mg/kg/injection, schedule: Q01DX009 (ip), vehicle: water): 98 % of control
T/C (endpoint: mean survival time, dose: 100.0 mg/kg/injection, schedule: Q01DX009 (ip), vehicle: water): 106 % of control

O=C(Nc1ccc(Nc2ccccc2)cc1)Nc1cc([N+](=O)[O-])ccc1Cl
T/C (endpoint: mean survival time, dose: 50.0 mg/kg/injection, schedule: Q01DX001 (ip), vehicle: saline with Tween-80): 92 % of control
T/C (endpoint: mean survival time, dose: 100.0 mg/kg/injection, schedule: Q01DX001 (ip), vehicle: saline with Tween-80): 86 % of control and 90 % of control
T/C [4]: 91 % of control and 98 % of control
T/C [5]: 93 % of control and 100 % of control
T/C (endpoint: mean survival time, dose: 100.0 mg/kg/injection, schedule: Q04DX003 (ip), vehicle: saline with Tween-80): 87 % of control
T/C (endpoint: mean survival time, dose: 200.0 mg/kg/injection, schedule: Q01DX001 (ip), vehicle: saline with Tween-80): 90 % of control
T/C [6]: 100 % of control and 109 % of control
T/C (endpoint: mean survival time, dose: 200.0 mg/kg/injection, schedule: Q04DX002 (ip), vehicle: saline with Tween-80): 91 % of control and 92 % of control
T/C (endpoint: mean survival time, dose: 200.0 mg/kg/injection, schedule: Q04DX003 (ip), vehicle: saline with Tween-80): 95 % of control
T/C (endpoint: mean survival time, dose: 400.0 mg/kg/injection, schedule: Q01DX001 (ip), vehicle: saline with Tween-80): 91 % of control
T/C [7]: 103 % of control and 111 % of control
T/C (endpoint: mean survival time, dose: 400.0 mg/kg/injection, schedule: Q04DX002 (ip), vehicle: saline with Tween-80): 92 % of control and 98 % of control
T/C (endpoint: mean survival time, dose: 400.0 mg/kg/injection, schedule: Q04DX003 (ip), vehicle: saline with Tween-80): 98 % of control

O=C1c2ccccc2C(=O)N1c1c2ccccc2cc2ccccc12
T/C [4]: 95 % of control
T/C [6]: 101 % of control
T/C [7]: 90 % of control

CCCCCC/C=N/[N+](C)(C)C
T/C [8]: 114 % of control
T/C [9]: 101 % of control
T/C [10]: 101 % of control and 107 % of control

COc1ccc(COC(=O)Oc2ccc(C)cc2)cc1OC
T/C [4]: 100 % of control
T/C [6]: 102 % of control
T/C [7]: 98 % of control

[Cl][Pt+2][Cl].[NH-]C(CC([NH-])c1ccccc1)c1ccccc1 (centres undefined)
T/C (endpoint: mean survival time, dose: 6.25 mg/kg/injection, schedule: Q04DX003 (ip), vehicle: saline with Tween-80): 119 % of control and 113 % of control and 115 % of control
T/C (endpoint: mean survival time, dose: 12.5 mg/kg/injection, schedule: Q04DX003 (ip), vehicle: saline with Tween-80): 121 % of control and 113 % of control and 119 % of control
T/C (endpoint: mean survival time, dose: 25.0 mg/kg/injection, schedule: Q04DX003 (ip), vehicle: saline with Tween-80): 122 % of control and 113 % of control and 119 % of control

CC1=CC(CO)C2C(=O)NC(=O)C2C1C (centres undefined)
T/C (endpoint: mean survival time, dose: 100.0 mg/kg/injection, schedule: Q01DX001 (ip), vehicle: Klucel (hydroxypropylcellulose) (HPC)): 98 % of control
T/C (endpoint: mean survival time, dose: 200.0 mg/kg/injection, schedule: Q01DX001 (ip), vehicle: Klucel (hydroxypropylcellulose) (HPC)): 105 % of control
T/C (endpoint: mean survival time, dose: 400.0 mg/kg/injection, schedule: Q01DX001 (ip), vehicle: Klucel (hydroxypropylcellulose) (HPC)): 105 % of control

Cc1cc(Cl)ccc1NC(=O)Nc1c(Oc2ccc(Cl)cc2)ccc(Cl)c1S(=O)(=O)O
T/C (endpoint: mean survival time, dose: 100.0 mg/kg/injection, schedule: Q01DX001 (ip), vehicle: saline): 96 % of control
T/C (endpoint: mean survival time, dose: 200.0 mg/kg/injection, schedule: Q01DX001 (ip), vehicle: saline): 98 % of control

Cc1ccc(/C(O)=C2/CC(C)(C)c3ccccc3C2=O)cc1
T/C [1]: 92 % of control
T/C [2]: 92 % of control
T/C [3]: 88 % of control

C#CCP(=O)(OCC)OCC
T/C [11]: 95 % of control
T/C [12]: 95 % of control
T/C [13]: 94 % of control

NCc1ccc(O)c(O)c1
T/C [10]: 115 % of control
T/C [11]: 118 % of control and 124 % of control
T/C [12]: 123 % of control and 124 % of control
T/C [13]: 114 % of control
T/C (endpoint: mean survival time, dose: 800.0 mg/kg/injection, schedule: Q01DX009 (ip), vehicle: saline): 118 % of control
T/C (endpoint: median survival time, dose: 28.13 mg/kg/injection, schedule: Q03HX024 (ip), vehicle: saline): 111 % of control
T/C (endpoint: median survival time, dose: 56.25 mg/kg/injection, schedule: Q03HX024 (ip), vehicle: saline): 110 % of control
T/C (endpoint: median survival time, dose: 300.0 mg/kg/injection, schedule: Q03HX024 (ip), vehicle: saline): 110 % of control

CSc1ncnc2c1C[P+](Cc1ccccc1)(c1ccccc1)CC2 (centres undefined)
T/C (endpoint: mean survival time, dose: 25.0 mg/kg/injection, schedule: Q04DX002 (ip), vehicle: saline with Tween-80): 101 % of control
T/C (endpoint: mean survival time, dose: 50.0 mg/kg/injection, schedule: Q04DX002 (ip), vehicle: saline with Tween-80): 101 % of control
T/C [5]: 101 % of control

COC(=O)CNC(=O)C1CCCN1C(=O)OC(C)(C)C (centres undefined) (Boc-[ξP]-Gly-OMe)
T/C (endpoint: mean survival time, dose: 100.0 mg/kg/injection, schedule: Q04DX003 (ip), vehicle: saline): 94 % of control
T/C (endpoint: mean survival time, dose: 200.0 mg/kg/injection, schedule: Q04DX003 (ip), vehicle: saline): 97 % of control
T/C (endpoint: mean survival time, dose: 400.0 mg/kg/injection, schedule: Q04DX003 (ip), vehicle: saline): 107 % of control

Cc1cn(C2CC3[O][Sn]([c]4ccccc4)([c]4ccccc4)[O]CC3O2)c(=O)[nH]c1=O (centres undefined)
T/C (endpoint: mean survival time, dose: 0.75 mg/kg/injection, schedule: Q01DX005 (ip), vehicle: other): 90 % of control
T/C (endpoint: mean survival time, dose: 0.78 mg/kg/injection, schedule: Q01DX005 (ip), vehicle: other): 96 % of control and 100 % of control
T/C (endpoint: mean survival time, dose: 1.5 mg/kg/injection, schedule: Q01DX005 (ip), vehicle: other): 90 % of control
T/C (endpoint: mean survival time, dose: 1.5 mg/kg/injection, schedule: Q01DX005 (ip), vehicle: saline): 89 % of control
T/C (endpoint: mean survival time, dose: 3.0 mg/kg/injection, schedule: Q01DX005 (ip), vehicle: other): 95 % of control
T/C (endpoint: mean survival time, dose: 3.0 mg/kg/injection, schedule: Q01DX005 (ip), vehicle: saline): 89 % of control
T/C (endpoint: mean survival time, dose: 6.0 mg/kg/injection, schedule: Q01DX005 (ip), vehicle: saline): 97 % of control
T/C (endpoint: mean survival time, dose: 6.25 mg/kg/injection, schedule: Q01DX005 (ip), vehicle: other): 203 % of control and 102 % of control and 105 % of control
T/C (endpoint: mean survival time, dose: 6.25 mg/kg/injection, schedule: Q01DX009 (ip), vehicle: saline): 109 % of control
T/C (endpoint: mean survival time, dose: 12.0 mg/kg/injection, schedule: Q01DX005 (ip), vehicle: other): 100 % of control
T/C (endpoint: mean survival time, dose: 12.0 mg/kg/injection, schedule: Q01DX005 (ip), vehicle: saline): 104 % of control
T/C [8]: 107 % of control
T/C (endpoint: mean survival time, dose: 24.0 mg/kg/injection, schedule: Q01DX005 (ip), vehicle: other): 104 % of control
T/C (endpoint: mean survival time, dose: 24.0 mg/kg/injection, schedule: Q01DX005 (ip), vehicle: saline): 103 % of control
T/C [9]: 113 % of control
T/C [10]: 110 % of control
T/C [11]: 103 % of control
T/C [12]: 115 % of control

CSc1nc(NC2OCC(O)C(O)C2O)c(I)c(=O)[nH]1 (centres undefined)
T/C (endpoint: median survival time, dose: 12.5 mg/kg/injection, schedule: Q01DX005 (ip), vehicle: saline with Tween-80): 100 % of control
T/C (endpoint: median survival time, dose: 25.0 mg/kg/injection, schedule: Q01DX005 (ip), vehicle: saline with Tween-80): 100 % of control
T/C (endpoint: median survival time, dose: 50.0 mg/kg/injection, schedule: Q01DX005 (ip), vehicle: saline with Tween-80): 103 % of control
T/C (endpoint: median survival time, dose: 100.0 mg/kg/injection, schedule: Q01DX005 (ip), vehicle: saline with Tween-80): 107 % of control
T/C (endpoint: median survival time, dose: 200.0 mg/kg/injection, schedule: Q01DX005 (ip), vehicle: saline with Tween-80): 107 % of control
